# Experimental data as given in EP1285918A1, “C7 Ester substituted taxanes as antitumor agents” (Florida State University Research Foundation, Inc., priority 2001, dated 2003).
# Like-named read-outs stand apart in the source and are kept apart here.
# Columns and labels:
# HCT116 = experiment: In Vitro cytotoxicity measured by the cell colony formation assay; format: cell-based; details: Homo sapiens, HCT-116; 72 h drug incubation, colonies counted after 7 days; concentration producing 50% inhibition of colony formation; read-out: IN VITRO ID 50 (nm) HCT116
# SK-MES carcinoma = experiment: In vivo evaluation against SK-MES human lung carcinoma xenograft, i.v. (Example 11)
# Protocol: (§1) Two antitumor compounds were formulated for an i.v. dosing regime prepared in the following vehicle: 10% ethanol, 10% Cremophor and 80% isotonic saline. […] Other compounds were formulated similarly.
# (§2) The MTDs for the antitumor compounds were calculated from earlier single dose data for mice receiving i.v. administration of these compounds. […] Vehicle control animals were dosed twice intravenously with half the total volume being given separated by one hour. The study was terminated at Day 60.
# (§3) The results are summarized in Table 1 and include mean days of survival (MDS), number of toxic deaths, number of survivors, number of complete or partial responses, and number with stable disease. The mean days of survival is the number of days after which a neoplasm reached a size of 1.5 g and the animal was euthanized. A complete response is obtained if the tumor is not palpable at the end of the study. A partial response is obtained if the tumor shrinks to a size smaller than its size on Day 1 of the study.
# (§4) A tumor scoring system was designed to provide a more quantitative ranking of efficacy (therapeutic potential) among the antitumor agents evaluated against the different human solid tumor xenografts. Each mouse in a study was given a score of from 1 to 10 at the end of the study. The scores can be summarized as follows:
# (§5) The individual score for each mouse was averaged into a mean score for each treatment group. […]
# [1] = system: NCI-H1299 (H1299) carcinoma
# Protocol: as §1, §2, §3, §4, §5
# The treatment protocol for the H1299 test was identical to the SK-MES test protocol. […]
# [2] = system: MX-1 Human Breast Carcinoma Xenograft; details: i.v. qd x 1 (Taxol 36 mg/kg split dose, 1393 72.6 mg/kg)
# Protocol: Antitumor compounds were formulated for an i.v. dosing regime (single i.v. bolus on qd x 1 schedule) prepared in the following vehicle: 5% ethanol, 5% Cremophor and 90% isotonic saline. […] Other compounds were similarly formulated. […] The dosing volume was 0.3 ml per 20 g mouse.
# All vehicle control animals in the split dosing regimes were dosed twice intravenously with half the total volume being given separated by one hour. The study was terminated on Day 60.
# The mean days of survival is the number of days after which a neoplasm reached a size of 2.0 g and the animal was euthanized. A complete response is obtained if the tumor is not palpable at the end of the study. A partial response is obtained if the tumor shrinks to a size smaller than its size on Day 1 of the study. […]
# [3] = system: SKMES Human Lung Carcinoma Xenograft; details: 40 mg/kg single oral bolus Day 1, 6 mice/group, study end Day 60
# Protocol: Antitumor compounds were formulated for oral administration over a wide dose range in a study to investigate the efficacy of this compound against the SKMES human lung cancer xenograft. The antitumor compounds were prepared in the following vehicle: 5% ethanol, 5% Cremophor and 90% isotonic saline.
# Female Nu/Nu mice (6-8 weeks of age; implanted with 1 mm^3 SKMES lung carcinoma fragments in the flank) were sorted into treatment groups of six mice each. SKMES size ranges and group mean SKMES size ranges were 126-448 mg and 238-241 mg, respectively. […] Treatments were administered as a single oral bolus on Day 1, and the study was terminated on Day 60.
# The mean days of survival is the number of days after which a SKMES neoplasm reached a size of 2.0 g and the animal was euthanized. A complete response is obtained if the tumor is not palpable at the end of the study. A partial response is obtained if the tumor shrinks to a size smaller than its size on Day 1 of the study. […]
# [4] = system: MX-1 Human Breast Carcinoma Xenograft; details: for MDS (n): days until tumor reached 1.5 g
# Protocol: The antitumor compounds were prepared in the following vehicle: 5% ethanol, 5% Cremophor and 90% isotonic saline.
# Female Nu/Nu mice (12-13 weeks of age; implanted with 1 mm^3 MX-1 human breast carcinoma fragments in the flank) were sorted into treatment groups of six mice each (MX-1 tumor size ranges and group mean MX-1 tumor size ranges were 56-138 mg and 68-74 mg, respectively). […] All treatments were administered as a single oral bolus on Day 1, and the study was terminated on Day 60.
# The mean days of survival is the number of days after which an MX-1 neoplasm reached a size of 1.5 g and the animal was euthanized. A complete response is obtained if the tumor is not palpable at the end of the study. A partial response is obtained if the tumor shrinks to a size smaller than its size on Day 1 of the study.
# [5] = i.v. split dose qd x 1 at MTD (Taxol 36 mg/kg, 1393 72.1 mg/kg), 6 mice/group, 1.5 g cut-off, Day 60
# [6] = i.v. split dose qd x 1 at MTD (Taxol 36 mg/kg, 1393 72.1 mg/kg), 6 mice/group, Day 60
# [7] = i.v. split dose qd x 1 at MTD (Taxol 36 mg/kg, 1393 72.1 mg/kg), tumor score 1 to 10 per mouse, group mean
# [8] = 28 mg/kg single oral bolus Day 1, 6 mice/group, study end Day 60
# [9] = 40 mg/kg single oral bolus Day 1, 6 mice/group, study end Day 60
compound,measurement,setting,value
"CC(=O)O[C@H]1C(=O)[C@@]2(C)[C@H]([C@H](OC(=O)c3ccccc3)[C@]3(O)C[C@H](OC(=O)[C@H](O)[C@@H](NC(=O)c4ccccc4)c4ccccc4)C(C)=C1C3(C)C)[C@]1(OC(C)=O)CO[C@@H]1C[C@@H]2O [Taxol, paclitaxel, reference compound]",IC50,HCT116,2.1 nM
same,survival extension compared to vehicle controls,SK-MES carcinoma; Taxol 36 mg/kg i.v.,30%
same,tolerability,SK-MES carcinoma; i.v. at MTD,well tolerated
same,MDS (n),SK-MES carcinoma; [5],16 ± 2.0 (6) days
same,Complete Response,SK-MES carcinoma; [6],0
same,Partial Response,SK-MES carcinoma; [6],0
same,Stable Disease,SK-MES carcinoma; [6],0
same,Survivors,SK-MES carcinoma; [6],0
same,Toxic Deaths,SK-MES carcinoma; [6],0
same,Mean Score,SK-MES carcinoma; [7],1.3 ± 0.3
same,survival extension compared to vehicle-treated animals,[1]; Taxol 36 mg/kg i.v.,10%
same,MDS (n),[1]; [5],27.0 ± 4.6 (5) days
same,Complete Response,[1]; [6],0
same,Stable Disease,[1]; [6],0
same,Survivors,[1]; [6],1
same,Toxic Deaths,[1]; [6],0
same,Mean Score,[1]; [7],2.7 ± 1.3
same,Complete Response,"[2]; 6 mice/group, Day 60",0
same,Partial Response,"[2]; 6 mice/group, Day 60",0
same,Survivors,"[2]; 6 mice/group, Day 60",1
same,Mean Score,"[2]; tumor score 1 to 10, group mean",1.2 ± 0.8
same,% Total Response,[3],0%
same,Complete Responses,[3],0
same,Partial Responses,[3],0
same,Stable Disease,[3],0
same,Survivors,[3],0
same,Toxic Deaths,[3],0
same,MDS (n),[3]; days until tumor reached 2.0 g,13.2 ± 1.4 (6) days
same,Complete Responses,[4]; [8],0
same,Partial Responses,[4]; [8],0
same,Stable Disease,[4]; [8],1
same,Survivors,[4]; [8],1
same,Toxic Deaths,[4]; [8],0
same,MDS (n),[4]; [8],23.1 ± 1.7 (5) days
same,Complete Responses,[4]; [9],0
same,Partial Responses,[4]; [9],1
same,Stable Disease,[4]; [9],0
same,Survivors,[4]; [9],1
same,Toxic Deaths,[4]; [9],0
same,MDS (n),[4]; [9],23.2 ± 1.3 (5) days
same,Stable Disease,"[4]; MX-1, single oral bolus, Taxol 40 and 28 mg/kg groups together, Day 60",one
same,Partial Response,"[4]; MX-1, single oral bolus, Taxol 40 and 28 mg/kg groups together, Taxotere 100 and 70 mg/kg groups together, Day 60",One
